# Experimental data published in patent US20020025296A1, “Combined use of nucleoside analogues and gene transfection for tissue imaging and therapy” (priority 1994, published 2002).
# Key:
# [1] = Partition coefficients (log P), n-octanol/water, modified shake-flask technique with UV quantitation; type: physicochemical; conditions: n-octanol and water (1:1, v/v)
# Description: Partition coefficients (log P) were measured by determining the distribution of the test compound between a presaturated mixture of n-octanol and water (1:1, v/v). The analytical method consisted of a modified shake-flask technique and ultraviolet (UV) spectrometry quantitation after centrifugal separation of the two phases. The concentration of the test compound in the octanol phase prior to distribution was 0.5 mM. The dihydropyridine chromophore (λmax=360 nm) was used for quantitative UV analysis of IVDU-CDS and IVFRU-CDS, for which the results are shown in Table 1.
# [2] = Stability of the preferred compounds; conditions: comparison among preferred compounds
# [3] = Pseudo-first order oxidation of the 1-methyl-1,4-dihydropyridine-CDS in mouse blood, brain homogenate and liver homogenate; type: in vitro ADME; conditions: 37° C.; for k, oxidation rate, brain / t1/2, oxidation, brain: 20% mouse brain homogenate; for k, oxidation rate, blood / t1/2, oxidation, blood: 50% mouse blood
# Description: Pseudo-first order rate constants and half-lives for the oxidation of IVDU-CDS and IVFRU-CDS were determined in 50% mouse blood, 20% mouse brain homogenate and 20% mouse liver homogenate. A solution of the test compound in DMSO (10 Mm) was added to each matrix and incubated at 37° C. At various times after test compound addition, an aliquot was removed and added to acetonitrile (100 μL). The samples were immediately centrifuged and the supernatant was analyzed by quantitative reverse phase HPLC. The rate of disappearance of the 1-methyl-1,4-dihydropyridine-CDS was determined by UV detection at 360 nm.
# [4] = system: KBALB-STK cells that express HSV-1 TK; assay: In vitro cellular uptake of radiopharmaceuticals in transduced or non-transduced sarcoma cell lines; type: cell-based; conditions: KBALB-STK cells relative to KBALB or KBALB-LNL cells, 37° C.
# Description: The KBALB sarcoma models used in these studies are derived by exposing wild-type KBALB cells to Moloney murine leukemia virus (MMLV) producer cell supernatants containing replication incompetent ecotropic retroviruses. […] These transduced cell lines are cultured in media containing the antibiotic G-418 to select for those cells expressing the neomycin resistance gene.
# KBALB-STK, KBALB-LNL, or wild type KBALB cells were grown to confluency in 24 well culture plates. [^125I]-IVDU (sp. act.=12 Gbq/mmol), [^125I]-1VFRU (sp. act.=11 Gbq/mmol), [^131′I]-IVDU-CDS (sp. act.=2.8 Gbq/mmol) or [^131I]-IVFRU-CDS (sp. act.=4.3 Gbq/mmol) were added to each well in 100 μL saline solution and incubated at 37° C. At varying times after exposure to the test compound, the supernatant was removed, the cells rinsed with saline, and the adherent cells were then trypsinized prior to their removal. Cellular uptake -was determined by gamma counting using a Beckmann 8000 gamma counter.
# [5] = system: KBALB-STK tumors expressing HSV-1 TK; assay: Scintigraphic imaging of KBALB-STK tumors; type: in vivo, mice; conditions: 8 hours after administration
# Description: (§1) BALB-STK cells (1×10^5 cells) were injected subcutaneously into the flank of 12 Balb-c mice. All inoculated animals developed palpable tumors suitable for imaging after 14 days at which time the tumors were approximately 10 mm in diameter. Static images were obtained following injection of 3.7 Mbq of [^131I]-VFRU (sp. act.=252 Gbq/mmol) via the tail vein. Animals were placed in the prone position under a pinhole collimator using a Searle gamma camera (Scintiview) with data manipulated on an ADAC computer (DPS 3300). Images were acquired over 15 minutes using a 256×256 matrix. After initial imaging, a group of animals (n=6) were administered an intraparietoneal (ip) injection of ganciclovir (100 mg/kg) once daily for seven consecutive days. The control group (n=6) received daily saline injections. After four days, the animals were administered [^131I]-IVFRU as described previously and imaging was performed using the same acquisition protocol described above. It was noted that the treatment group tumor size had shrunk to an average size of less than 5 mm. […] The tumors in the saline administered control animals continued to grow until termination of the experiment. […] The scintigram, presented as FIG. 7, is for the same animal 8 hours after [^131I]-IVFRU administration following 4 days of ganciclovir treatment.
# KBALB tumors = assay: Biodistribution in mice bearing wild type KBALB tumors; type: in vivo; conditions: relative to KBALB-STK tumors
# Description: (§2) KBALB or KBALB-STK cells (1×10^5 cells) were injected subcutaneously into the flank of male Balb-c mice. Palpable tumors appeared 14 days after injection. [^131I]-IVFRU (370 KBq, sp. act. 59 Gbq/mmol) was injected via the tail vein into each tumor bearing animal. Three animals were sacrificed and dissected at each time interval. The radioactivity uptake by selected tissues of interest were determined using a Beckman 8000 gamma counter. Tissue uptake is expressed as a percentage of the administered dose per gram of tissue versus time in FIGS. 3 and 4. The tumor to blood ratio is presented for both tumor models in FIG. 5.
# KBALB-STK tumors [6] = assay: Biodistribution in mice bearing KBALB-STK tumors; type: in vivo
# Description: as §2
# HSV-1 TK = HSV-1 TK (Human herpesvirus 1, UniProt P0DTH5); assay: Substrate property for the gene expression product HSV-1 TK; type: biochemical, herpes simplex virus type 1
# HSV-1 TK, sequence (P0DTH5 whole entry): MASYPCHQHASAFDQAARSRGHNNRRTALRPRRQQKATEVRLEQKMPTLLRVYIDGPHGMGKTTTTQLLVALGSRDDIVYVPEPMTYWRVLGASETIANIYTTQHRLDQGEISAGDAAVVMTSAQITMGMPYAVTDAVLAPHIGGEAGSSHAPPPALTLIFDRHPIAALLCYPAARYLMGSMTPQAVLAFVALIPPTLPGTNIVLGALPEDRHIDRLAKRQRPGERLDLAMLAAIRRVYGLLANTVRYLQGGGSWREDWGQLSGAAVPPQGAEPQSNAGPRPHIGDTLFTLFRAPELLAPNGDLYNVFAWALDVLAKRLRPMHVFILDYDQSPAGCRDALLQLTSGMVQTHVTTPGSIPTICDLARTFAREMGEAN
# KBALB-STK tumors [7] = assay: Ganciclovir treatment of mice bearing KBALB-STK tumors; type: in vivo; conditions: 100 mg/kg ip once daily
# Description: as §1
smiles,measurement,setting,value
"O=c1[nH]c(=O)n([C@H]2C[C@H](O)[C@@H](CO)O2)cc1/C=C/I [IVDU, (E)-5-(2-iodovinyl)-2′-deoxyuridine]",logP,[1],1.1
same,stability,[2],"less stable than IVFRU, IVFAU and IVAU"
"CN1C=CCC(C(=O)O[C@H]2C[C@H](n3cc(/C=C/I)c(=O)[nH]c3=O)O[C@@H]2CO)=C1 [IVDU-CDS, (E)-5-(2-iodovinyl)-3′-O-(1-methyl-1,4-dihydropyridyl-3-carbonyl)-2′-deoxyuridine]",log P,[1],1.77
same,"k, oxidation rate, brain",[3],0.00961 min⁻¹
same,"t1/2, oxidation, brain",[3],1.2 h
same,"k, oxidation rate, liver",[3]; 20% mouse liver homogenate,0.01081 min⁻¹
same,"k, oxidation rate, blood",[3],0.00522 min⁻¹
same,"t1/2, oxidation, blood",[3],2.22 h
same,stability,[2],more stable
"O=c1[nH]c(=O)n([C@@H]2O[C@H](CO)[C@@H](O)[C@H]2F)cc1/C=C/I [IVFRU, (E)-5-(2-iodovinyl)-2′-fluoro-2′-deoxyuridine]",logP,[1],1.21
"CN1C=CCC(C(=O)O[C@H]2[C@@H](F)[C@H](n3cc(/C=C/I)c(=O)[nH]c3=O)O[C@@H]2CO)=C1 [IVFRU-CDS, (E)-5-(2-iodovinyl)-3′-O-(1-methyl-1,4-dihydropyridyl-3-carbonyl)-2′-fluoro-2′-deoxyuridine]",log P,[1],1.83
same,"k, oxidation rate, brain",[3],0.0031 min⁻¹
same,"t1/2, oxidation, brain",[3],3.72 h
same,"k, oxidation rate, liver",[3]; 20% mouse liver homogenate,0.00531 min⁻¹
same,"t1/2, oxidation, liver",[3]; 20% mouse liver homogenate,2.17 h
same,"k, oxidation rate, blood",[3],0.0027 min⁻¹
same,"t1/2, oxidation, blood",[3],4.27 h
O=c1[nH]c(=O)n([C@@H]2O[C@H](CO)[C@@H](O)[C@@H]2F)cc1C=C[125I] [[^125I]-IVFRU],cellular uptake,[4],selective uptake
O=c1[nH]c(=O)n([C@H]2C[C@H](O)[C@@H](CO)O2)cc1C=C[125I] [[^125I]-VDU],cellular uptake,[4],selective uptake
"O=c1[nH]c(=O)n(C2OC(CO)C(O)C2F)cc1/C=C/[131I] (stereo not shown) [[^131I]-IVFRU, [^131I]-(E)-5-(2-iodovinyl)-2′-fluoro-2′-deoxyuridine]",activity in region of the shrinking tumor remnant (scintigram),[5]; following 4 days of ganciclovir treatment,relatively devoid of activity
same,uptake into tumor (scintigram),[5]; prior to ganciclovir treatment,selective uptake
same,tumor/blood ratios,KBALB tumors; all time points,much lower
same,tumor radioactivity,KBALB tumors,significantly less
same,peak tumor/blood ratio,"KBALB-STK tumors [6]; KBALB-STK tumors, 8 hours post injection, tail vein",approximately 3
same,tumor uptake,KBALB-STK tumors [6]; tumors expressing HSV-1 TK,Preferential tumor uptake
O=c1[nH]c(=O)n([C@@H]2O[C@H](CO)[C@@H](O)[C@H]2F)cc1/C=C/[123I] [^123I-IVFRU],substrate for HSV-1 TK,HSV-1 TK,substrate
Nc1nc(O)c2ncn(COC(CO)CO)c2n1 [ganciclovir],tumor response,"KBALB-STK tumors [7]; after 7 days of treatment, all treated animals",completely regressed
same,average tumor size,"KBALB-STK tumors [7]; after four days, tumors approximately 10 mm at start",less than 5 mm
